Assay results: PubChem BioAssay (NCI)
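Following 48 hours of exposure in 96-well plates, responses at five concentrations were used to interpolate endpoints linearly. Abbreviation: GI50, concentration required for 50% inhibition of growth. The concentration for full growth arrest is given as TGI.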

Assays:
Assay in all cases: NCI tumour cell line growth inhibition, 48 h
[1] = tested on: 786-0 renal
[2] = tested on: A498 renal
[3] = tested on: A549 NSCLC
[4] = tested on: ACHN renal
[5] = tested on: BT-549 breast
[6] = tested on: CAKI-1 renal
[7] = tested on: CCRF-CEM leukemia
[8] = tested on: COLO 205 colon
[9] = tested on: DU-145 prostate
[10] = tested on: EKVX NSCLC
[11] = tested on: HCC-2998 colon
[12] = tested on: HCT-116 colon
[13] = tested on: HCT-15 colon
[14] = tested on: HL-60(TB) leukemia
[15] = tested on: HOP-62 NSCLC
[16] = tested on: HOP-92 NSCLC
[17] = tested on: HS 578T breast
[18] = tested on: HT29 colon
[19] = tested on: IGROV1 ovarian
[20] = tested on: K-562 leukemia
[21] = tested on: KM12 colon
[22] = tested on: LOX IMVI melanoma
[23] = tested on: M14 melanoma
[24] = tested on: MALME-3M melanoma
[25] = tested on: MCF7 breast
[26] = tested on: MDA-MB-231 breast
[27] = tested on: MDA-MB-435
[28] = tested on: MDA-MB-468 breast
[29] = tested on: MOLT-4 leukemia
[30] = tested on: NCI-H226 lung
[31] = tested on: NCI-H23 lung
[32] = tested on: NCI-H460 lung
[33] = tested on: NCI-H522 lung
[34] = tested on: OVCAR-3 ovarian
[35] = tested on: OVCAR-4 ovarian
[36] = tested on: OVCAR-5 ovarian
[37] = tested on: OVCAR-8 ovarian
[38] = tested on: PC-3 prostate
[39] = tested on: RPMI-8226 leukemia
[40] = tested on: RXF 393 renal
[41] = tested on: SF-268 CNS
[42] = tested on: SF-295 CNS
[43] = tested on: SF-539 CNS
[44] = tested on: SK-MEL-2 melanoma
[45] = tested on: SK-MEL-28 melanoma
[46] = tested on: SK-MEL-5 melanoma
[47] = tested on: SK-OV-3 ovarian
[48] = tested on: SN12C renal
[49] = tested on: SNB-19 CNS
[50] = tested on: SNB-75 CNS
[51] = tested on: SR leukemia
[52] = tested on: SW-620 colon
[53] = tested on: T-47D breast
[54] = tested on: TK-10 renal
[55] = tested on: U251 CNS
[56] = tested on: UACC-257 melanoma
[57] = tested on: UACC-62 melanoma
[58] = tested on: UO-31 renal

`C=C1CCC2C3(C)COC(c4c(F)cccc4F)OC3CCC2(C)C1C/C=C1/C(=O)OCC1O` (stereo unspecified) was tested, and the GI50 [1] was 1.8 µM, the TGI [1] was 3.28 µM and the GI50 [2] was 19.8 µM. The TGI [2] was 34.5 µM, the GI50 [3] was 4.05 µM and the TGI [3] was 17.2 µM. The GI50 [4] was 1.75 µM, the TGI [4] was 3.16 µM and the GI50 [5] was 1.89 µM. For the same compound, the TGI [5] was 4.17 µM, the GI50 [6] was 3.38 µM and the TGI [6] was 11.3 µM. It also gave a GI50 [7] of 2.24 µM, a TGI [7] of 6.68 µM and a GI50 [8] of 2.43 µM. The TGI [8] was 5.27 µM, the GI50 [9] was 4.16 µM and the TGI [9] was 14.9 µM. The GI50 [10] was 13 µM, the TGI [10] was 26.1 µM and the GI50 [11] was 4.26 µM. It also gave a TGI [11] of 15.8 µM, a GI50 [12] of 1.61 µM and a TGI [12] of 3.04 µM. The GI50 [13] was 1.75 µM, the TGI [13] was 4.12 µM and the GI50 [14] was 2 µM. For the same compound, the TGI [14] was 5.03 µM, the GI50 [15] was 11.3 µM and the TGI [15] was 24 µM. The GI50 [16] was 2.94 µM, the TGI [16] was 9.34 µM and the GI50 [17] was 3.92 µM. The TGI [17] was 30.5 µM, the GI50 [18] was 2.06 µM and the TGI [18] was 4.26 µM. For the same compound, the GI50 [19] was 4.56 µM, the TGI [19] was 16.5 µM and the GI50 [20] was 3.12 µM. The TGI [20] was 11.3 µM, the GI50 [21] was 2.54 µM and the TGI [21] was 6.88 µM. It also gave a GI50 [22] of 1.59 µM, a TGI [22] of 2.93 µM and a GI50 [23] of 3.34 µM. For the same compound, the TGI [23] was 12 µM, the GI50 [24] was 3.55 µM and the TGI [24] was 12.8 µM. For the same compound, the GI50 [25] was 1.95 µM, the TGI [25] was 5.48 µM and the GI50 [26] was 2.29 µM. It also gave a TGI [26] of 5.45 µM, a GI50 [27] of 1.97 µM and a TGI [27] of 4.37 µM. It also gave a GI50 [28] of 1.78 µM, a TGI [28] of 3.58 µM and a GI50 [29] of 3.37 µM. The TGI [29] was 11.1 µM, the GI50 [30] was 1.78 µM and the TGI [30] was 3.42 µM. For the same compound, the GI50 [31] was 5.66 µM, the TGI [31] was 18.5 µM and the GI50 [32] was 3.06 µM. It also gave a TGI [32] of 11.8 µM, a GI50 [33] of 1.65 µM and a TGI [33] of 3.23 µM. The GI50 [34] was 2.02 µM, the TGI [34] was 4.12 µM and the GI50 [35] was 2.58 µM. It also gave a TGI [35] of 7.77 µM, a GI50 [36] of 2.17 µM and a TGI [36] of 5.06 µM. For the same compound, the GI50 [37] was 2.26 µM, the TGI [37] was 7.04 µM and the GI50 [38] was 3.61 µM. For the same compound, the TGI [38] was 13.4 µM, the GI50 [39] was 2.37 µM and the TGI [39] was 5.77 µM. The GI50 [40] was 3.46 µM, the TGI [40] was 11.4 µM and the GI50 [41] was 4.4 µM. For the same compound, the TGI [41] was 17.2 µM, the GI50 [42] was 1.94 µM and the TGI [42] was 4.67 µM. The GI50 [43] was 1.81 µM, the TGI [43] was 3.3 µM and the GI50 [44] was 2.88 µM. It also gave a TGI [44] of 8.52 µM, a GI50 [45] of 2.19 µM and a TGI [45] of 4.9 µM. It also gave a GI50 [46] of 4.53 µM, a TGI [46] of 16.4 µM and a GI50 [47] of 17.8 µM. For the same compound, the TGI [47] was 32.4 µM, the GI50 [48] was 1.81 µM and the TGI [48] was 4.2 µM. It also gave a GI50 [49] of 8.4 µM, a TGI [49] of 20.8 µM and a GI50 [50] of 3.75 µM. The TGI [50] was 16.4 µM, the GI50 [51] was 3.7 µM and the TGI [51] was 12.5 µM. For the same compound, the GI50 [52] was 1.8 µM, the TGI [52] was 3.63 µM and the GI50 [53] was 3.25 µM. It also gave a TGI [53] of 17.6 µM, a GI50 [54] of 6.18 µM and a TGI [54] of 19.4 µM. For the same compound, the GI50 [55] was 1.81 µM, the TGI [55] was 3.45 µM and the GI50 [56] was 2.28 µM. For the same compound, the TGI [56] was 8.77 µM, the GI50 [57] was 3.13 µM and the TGI [57] was 12 µM. It also gave a GI50 [58] of 1.73 µM and a TGI [58] of 3.99 µM.
